One experiment has as its system PC12 SOD1^G93A cells. The note with it: neuroprotection against MG-132-induced SOD1^G93A toxicity in PC12 cells; leads of the authors' earlier work; read-out: EC50 (NP = neuroprotection); cited from earlier work.
Experiment [1] concerns 25 kDa covalently modified band in HAP1 cells. Kind of experiment: Photoaffinity labeling with HAP1 wild-type and Hsp27 knockout cells. It is filed as binding. As to conditions: 15 μM PRAPP. An excerpt:
First, we conducted photoaffinity labeling studies with wild-type (WT) HAP1 cells to verify the existence of the 25 kDa covalent modification that we observed in PC12 cells.
Figure 7 Photoaffinity Labeling Experiments with HAP1 cells. […] The nonspecific background modifications remain unchanged with increasing concentration of P3, further confirming the 25 kDa covalently modified band as a true target; (B) comparison of the photoaffinity labeling experiments with HAP1 wild-type (WT) cells and Hsp27 knockout (KO) cells at 15 μM PRAPP concentration.

The EC50 is the concentration giving half of the maximal effect. As for `O=c1cc(COc2cc(Cl)cc(Cl)c2)[nH][nH]1` [P2], the concentration giving a half-maximal response (EC50) in the experiment on PC12 SOD1^G93A cells is 67 nM. As to `C#CCN(Cc1cc(=O)[nH][nH]1)Cc1c(F)c(F)c(N=[N+]=[N-])c(F)c1F` [PRAPP, 5-(((4-Azido-2,3,5,6-tetrafluorobenzyl)(prop-2-yn-1-yl)amino)methyl)-1,2-dihydro-3H-pyrazol-3-one], the “intensity of the 25 kDa covalently modified band in Hsp27 KO versus WT cells” value in experiment [1] was “remains unchanged”.

Values taken from publication PMC10823514, “Target Identification of a Class of Pyrazolone Protein Aggregation Inhibitor Therapeutics for Amyotrophic Lateral Sclerosis” (ACS Central Science, 2023).
